Laboratory results taken from patent US20220348595A1, “COMPOUNDS AND METHODS FOR THE TARGETED DEGRADATION OF ESTROGEN RECEPTORS” (Endotarget Inc., priority 2021, published 2022).

How the values were obtained:
Assay type in all cases: cell-based
ER = biological target: T1, ER (Homo sapiens, UniProt P03372); assay: ER antagonism (T47D ERE luciferase), T47d-kb-Luc cells; conditions: read-out: IC50 (ER antagonistm)
T1 construct: endogenous in cells; host or cells: T47d-kb-Luc (T47D stably transfected with a luciferase reporter gene only)
T1 sequence (P03372 1-595): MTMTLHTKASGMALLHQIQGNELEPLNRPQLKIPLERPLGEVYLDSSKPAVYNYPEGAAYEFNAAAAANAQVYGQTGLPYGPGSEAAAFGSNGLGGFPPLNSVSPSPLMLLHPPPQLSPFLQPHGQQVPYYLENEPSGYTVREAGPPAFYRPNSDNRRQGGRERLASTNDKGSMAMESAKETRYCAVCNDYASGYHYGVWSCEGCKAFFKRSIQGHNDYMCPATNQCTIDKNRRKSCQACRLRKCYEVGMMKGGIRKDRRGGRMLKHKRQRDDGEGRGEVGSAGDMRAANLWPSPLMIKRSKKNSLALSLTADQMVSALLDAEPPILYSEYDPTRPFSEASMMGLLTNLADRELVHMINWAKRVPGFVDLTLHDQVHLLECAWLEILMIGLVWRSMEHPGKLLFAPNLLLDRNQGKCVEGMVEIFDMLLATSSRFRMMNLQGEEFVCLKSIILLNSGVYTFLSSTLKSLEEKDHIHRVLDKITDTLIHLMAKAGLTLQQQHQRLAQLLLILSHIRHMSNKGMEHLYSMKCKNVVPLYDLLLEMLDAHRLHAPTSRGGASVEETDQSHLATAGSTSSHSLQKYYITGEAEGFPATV
Procedure, shortened: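 Five sample concentrations, each in quadruplicate and repeated in at least three experiments, were tested for blocking of estradiol activity. Values were expressed relative to the estradiol control. The cell system was the T47d-kb-Luc stable breast cancer line.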

ERα = biological target: T2, ERα (Homo sapiens, UniProt P03372); assay: ER degradation in MCF-7 cells (Western blot); conditions: for DC50: ER degradation, 24 hours; for Dmax: MCF7, Maximal ER degradation, read-out: Dmax
T2 construct: endogenous in cells; host or cells: MCF-7
T2 sequence (P03372 1-595): T1 sequence (P03372 1-595)
Procedure, shortened: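 ERα levels assessed by Western blot (50 μg lysate protein, infrared scanner) after 24-hour exposure of MCF-7 cells to varied compound concentrations. Values reported as DC50, the concentration halving ER expression, and Dmax, the maximal ER reduction achieved across tested concentrations.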

[1] = system: MCF-7 breast cancer cells; assay: MCF-7 proliferation / cell viability assay; conditions: Homo sapiens, MCF7; MCF-7 proliferation with 0.1 nM 17-beta estradiol; read-out: IC50 (anti-proliferation)
Procedure, shortened: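 Survival ratio, with vehicle (DMSO) as 100%, was derived from Coulter-counted viable cell numbers. Cells were grown in 5% FBS DMEM and dosed for 5 days across six concentrations between 10^−10 M and 10^−5 M.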

| Structure (SMILES) | IC50 (ER) | DC50 (ERα) | Dmax (ERα) | IC50 [1] |
| --- | --- | --- | --- | --- |
| CC/C(=C(/c1ccc(B(O)O)cc1)c1ccc(N2CCN(CCCC3CCN(c4ccc5c(c4)CN(C4CCC(=O)NC4=O)C5=O)CC3)CC2)cc1)c1ccccc1 (stereo not shown) [Compound 58] | 10 to 50 nM | < 10 nM | > 90% | 10 to 50 nM |
| CC/C(=C(\c1ccc(B(O)O)cc1)c1ccc(N2CCN(CCN3CCN(c4ccc5c(c4)C(=O)N(C4CCC(=O)NC4=O)C5=O)CC3)CC2)cc1)c1ccccc1 (stereo not shown) [Compound 59, (Z)-(4-(1-(4-(4-(2-(4-(2-(2,6-dioxopiperidin-3-yl)-1,3-dioxoisoindolin-5-yl)piperazin-1-yl)ethyl)piperazin-1-yl)phenyl)-2-phenylbut-1-en-1-yl)phenyl)boronic acid] | 10 to 50 nM | 10 to 50 nM | > 90% | 10 to 50 nM |
| CC/C(=C(/c1ccc(B(O)O)cc1)c1ccc(N2CCN(CCN3CCN(c4ccc5c(c4)C(=O)N(C4CCC(=O)NC4=O)C5=O)CC3)CC2)cc1)c1ccccc1 (stereo not shown) [Compound 60, (E)-(4-(1-(4-(4-(2-(4-(2-(2,6-dioxopiperidin-3-yl)-1,3-dioxoisoindolin-5-yl)piperazin-1-yl)ethyl)piperazin-1-yl)phenyl)-2-phenylbut-1-en-1-yl)phenyl)boronic acid] | 10 to 50 nM | 10 to 50 nM | > 90% | 10 to 50 nM |
| CC/C(=C(\c1ccc(B(O)O)cc1)c1ccc(N2CCN(CCN3CCN(c4ccc5c(c4)CN(C4CCC(=O)NC4=O)C5=O)CC3)CC2)cc1)c1ccccc1 (stereo not shown) [Compound 61, (Z)-(4-(1-(4-(4-(2-(4-(2-(2,6-dioxopiperidin-3-yl)-1-oxoisoindolin-5-yl)piperazin-1-yl)ethyl)piperazin-1-yl)phenyl)-2-phenylbut-1-en-1-yl)phenyl)boronic acid] | 10 to 50 nM | < 10 nM | > 90% | 10 to 50 nM |
| CC/C(=C(/c1ccc(B(O)O)cc1)c1ccc(N2CCN(CCN3CCN(c4ccc5c(c4)CN(C4CCC(=O)NC4=O)C5=O)CC3)CC2)cc1)c1ccccc1 (stereo not shown) [Compound 62, (E)-(4-(1-(4-(4-(2-(4-(2-(2,6-dioxopiperidin-3-yl)-1-oxoisoindolin-5-yl)piperazin-1-yl)ethyl)piperazin-1-yl)phenyl)-2-phenylbut-1-en-1-yl)phenyl)boronic acid] | 10 to 50 nM | < 10 nM | > 90% | 10 to 50 nM |
| CC/C(=C(\c1ccc(B(O)O)cc1)c1ccc(N2CCC(CCN3CCN(c4ccc5c(c4)C(=O)N(C4CCC(=O)NC4=O)C5=O)CC3)CC2)cc1)c1ccccc1 (stereo not shown) [Compound 63, (Z)-(4-(1-(4-(4-(2-(4-(2-(2,6-dioxopiperidin-3-yl)-1,3-dioxoisoindolin-5-yl)piperazin-1-yl)ethyl)piperidin-1-yl)phenyl)-2-phenylbut-1-en-1-yl)phenyl)boronic acid] | 10 to 50 nM | 10 to 50 nM | > 90% | 10 to 50 nM |
| CC/C(=C(/c1ccc(B(O)O)cc1)c1ccc(N2CCC(CCN3CCN(c4ccc5c(c4)C(=O)N(C4CCC(=O)NC4=O)C5=O)CC3)CC2)cc1)c1ccccc1 (stereo not shown) [Compound 64] | 10 to 50 nM | 10 to 50 nM | > 90% | 10 to 50 nM |
| CC/C(=C(\c1ccc(B(O)O)cc1)c1ccc(N2CCN(CCC3CCN(c4ccc5c(c4)C(=O)N(C4CCC(=O)NC4=O)C5=O)CC3)CC2)cc1)c1ccccc1 (stereo not shown) [Compound 65, (Z)-(4-(1-(4-(4-(2-(1-(2-(2,6-dioxopiperidin-3-yl)-1,3-dioxoisoindolin-5-yl)piperidin-4-yl)ethyl)piperazin-1-yl)phenyl)-2-phenylbut-1-en-1-yl)phenyl)boronic acid] | < 10 nM | < 10 nM | > 90% | 10 to 50 nM |
| CC/C(=C(/c1ccc(B(O)O)cc1)c1ccc(N2CCN(CCC3CCN(c4ccc5c(c4)C(=O)N(C4CCC(=O)NC4=O)C5=O)CC3)CC2)cc1)c1ccccc1 (stereo not shown) [Compound 66, (E)-(4-(1-(4-(4-(2-(1-(2-(2,6-dioxopiperidin-3-yl)-1,3-dioxoisoindolin-5-yl)piperidin-4-yl)ethyl)piperazin-1-yl)phenyl)-2-phenylbut-1-en-1-yl)phenyl)boronic acid] | 10 to 50 nM | < 10 nM | > 90% | 10 to 50 nM |
| CC/C(=C(\c1ccc(B(O)O)cc1)c1ccc(N2CCN(CCC3CCN(c4ccc5c(c4)CN(C4CCC(=O)NC4=O)C5=O)CC3)CC2)cc1)c1ccccc1 (stereo not shown) [Compound 67, (Z)-(4-(1-(4-(4-(2-(1-(2-(2,6-dioxopiperidin-3-yl)-1-oxoisoindolin-5-yl)piperidin-4-yl)ethyl)piperazin-1-yl)phenyl)-2-phenylbut-1-en-1-yl)phenyl)boronic acid] | < 10 nM | < 10 nM | > 90% | < 10 nM |
| CC/C(=C(/c1ccc(B(O)O)cc1)c1ccc(N2CCN(CCC3CCN(c4ccc5c(c4)CN(C4CCC(=O)NC4=O)C5=O)CC3)CC2)cc1)c1ccccc1 (stereo not shown) [Compound 68, (E)-(4-(1-(4-(4-(2-(1-(2-(2,6-dioxopiperidin-3-yl)-1-oxoisoindolin-5-yl)piperidin-4-yl)ethyl)piperazin-1-yl)phenyl)-2-phenylbut-1-en-1-yl)phenyl)boronic acid] | < 10 nM | < 10 nM | > 90% | < 10 nM |
| CC/C(=C(/c1ccc(OCCN2CCN(CC3CCN(c4ccc5c(c4)CN([C@@H]4CCC(=O)NC4=O)C5=O)CC3)CC2)cc1)c1ccc(B(O)O)cc1)c1ccccc1 [Compound 70] | < 10 nM | < 10 nM | > 90% | < 10 nM |
| CC/C(=C(\c1ccc(OCCN2CCN(CC3CCN(c4ccc5c(c4)CN([C@H]4CCC(=O)NC4=O)C5=O)CC3)CC2)cc1)c1ccc(B(O)O)cc1)c1ccccc1 [Compound 71] | < 10 nM | < 10 nM | > 90% | < 10 nM |
| CC/C(=C(\c1ccc(OCCN2CCN(CC3CCN(c4ccc5c(c4)CN([C@@H]4CCC(=O)NC4=O)C5=O)CC3)CC2)cc1)c1ccc(B(O)O)cc1)c1ccccc1 [Compound 72] | < 10 nM | < 10 nM | > 90% | < 10 nM |
| CC/C(=C(/c1ccc(OCCN2CCC(CN3CCN(c4ccc5c(c4)CN([C@H]4CCC(=O)NC4=O)C5=O)CC3)CC2)cc1)c1ccc(B(O)O)cc1)c1ccccc1 [Compound 73, (S,Z)-(4-(1-(4-(2-(4-((4-(2-(2,6-dioxopiperidin-3-yl)-1-oxoisoindolin-5-yl)piperazin-1-yl)methyl)piperidin-1-yl)ethoxy)phenyl)-2-phenylbut-1-en-1-yl)phenyl)boronic acid] | < 10 nM | < 10 nM | > 90% | < 10 nM |
| CC/C(=C(/c1ccc(OCCN2CCC(CN3CCN(c4ccc5c(c4)CN([C@@H]4CCC(=O)NC4=O)C5=O)CC3)CC2)cc1)c1ccc(B(O)O)cc1)c1ccccc1 [Compound 74, (R,Z)-(4-(1-(4-(2-(4-((4-(2-(2,6-dioxopiperidin-3-yl)-1-oxoisoindolin-5-yl)piperazin-1-yl)methyl)piperidin-1-yl)ethoxy)phenyl)-2-phenylbut-1-en-1-yl)phenyl)boronic acid] | < 10 nM | < 10 nM | > 90% | < 10 nM |
| CC/C(=C(\c1ccc(OCCN2CCC(CN3CCN(c4ccc5c(c4)CN([C@H]4CCC(=O)NC4=O)C5=O)CC3)CC2)cc1)c1ccc(B(O)O)cc1)c1ccccc1 [Compound 75, (S,E)-(4-(1-(4-(2-(4-((4-(2-(2,6-dioxopiperidin-3-yl)-1-oxoisoindolin-5-yl)piperazin-1-yl)methyl)piperidin-1-yl)ethoxy)phenyl)-2-phenylbut-1-en-1-yl)phenyl)boronic acid] | < 10 nM | < 10 nM | > 90% | < 10 nM |
| CC/C(=C(\c1ccc(OCCN2CCC(CN3CCN(c4ccc5c(c4)CN([C@@H]4CCC(=O)NC4=O)C5=O)CC3)CC2)cc1)c1ccc(B(O)O)cc1)c1ccccc1 [Compound 76] | < 10 nM | < 10 nM | > 90% | < 10 nM |
| CC/C(=C(\c1ccc(O)cc1)c1ccc(OCCN2CCN(C(=O)N3CCN(c4ccc5c(c4)CN(C4CCC(=O)NC4=O)C5=O)CC3)CC2)cc1)c1ccccc1 (stereo not shown) [Compound 77] | < 10 nM | < 10 nM | > 90% | < 10 nM |
